Measurements as given in patent US12459922B2 (Gilead Sciences, Inc., priority 2022, dated 2025).
pEC50: −log10 of the molar value.

tested on: endogenous cellular STAT1 (phosphorylated at Tyr701) in NCI-H1373 cells; experiment: Phospho-STAT1 (Tyr701) LANCE Ultra TR-FRET Detection Assay; format: cell-based; conditions: Homo sapiens, NCI-H1373, 48 h, phospho-STAT1 (Tyr701) induction, read-out: NH1373 pSTAT1 EC50

pEC50 | Structure (SMILES)
8.20 | Nc1nc(-c2cc3ccn(CCC[C@H](COC(F)F)Nc4cn[nH]c(=O)c4C(F)(F)F)c(=O)c3c(F)c2F)ncc1Cl [Example 391, (R)-6-(4-amino-5-chloropyrimidin-2-yl)-2-(5-(difluoromethoxy)-4-((6-oxo-5-(trifluoromethyl)-1,6-dihydropyridazin-4-yl)amino)pentyl)-7,8-difluoroisoquinolin-1(2H)-one]
8.82 | O=c1[nH]ncc(N[C@H](CCCn2ccc3cc(-c4ncc(Cl)cn4)c(F)c(F)c3c2=O)COC(F)F)c1C(F)(F)F [Example 392, (R)-6-(5-chloropyrimidin-2-yl)-2-(5-(difluoromethoxy)-4-((6-oxo-5-(trifluoromethyl)-1,6-dihydropyridazin-4-yl)amino)pentyl)-7,8-difluoroisoquinolin-1(2H)-one]
7.64 | COc1cnc(-c2cc3ncn(CCC[C@H](COC(F)F)Nc4cn[nH]c(=O)c4C(F)(F)F)c(=O)c3cc2F)nc1N [Example 393, (R)-7-(4-amino-5-methoxypyrimidin-2-yl)-3-(5-(difluoromethoxy)-4-((6-oxo-5-(trifluoromethyl)-1,6-dihydropyridazin-4-yl)amino)pentyl)-6-fluoroquinazolin-4(3H)-one]
8.91 | O=c1[nH]ncc(N[C@H](CCCn2cnc3cc(-c4ncc(Cl)cn4)c(F)cc3c2=O)COC(F)F)c1C(F)(F)F [Example 394, (R)-7-(5-chloropyrimidin-2-yl)-3-(5-(difluoromethoxy)-4-((6-oxo-5-(trifluoromethyl)-1,6-dihydropyridazin-4-yl)amino)pentyl)-6-fluoroquinazolin-4(3H)-one]
7.52 | Nc1nc(-c2cc3ncn(CCC[C@H](COC(F)F)Nc4cn[nH]c(=O)c4C(F)(F)F)c(=O)c3cc2F)ccc1C(F)F [Example 395, (R)-7-(6-amino-5-(difluoromethyl)pyridin-2-yl)-3-(5-(difluoromethoxy)-4-((6-oxo-5-(trifluoromethyl)-1,6-dihydropyridazin-4-yl)amino)pentyl)-6-fluoroquinazolin-4(3H)-one]
7.31 | O=c1[nH]ncc(N[C@H](CCCn2ccc3cc(-c4ncc(C(F)(F)F)s4)c(F)cc3c2=O)COC(F)F)c1C(F)(F)F [Example 396, (R)-2-(5-(difluoromethoxy)-4-((6-oxo-5-(trifluoromethyl)-1,6-dihydropyridazin-4-yl)amino)pentyl)-7-fluoro-6-(5-(trifluoromethyl)thiazol-2-yl)isoquinolin-1(2H)-one]
8.00 | Nc1nc(-c2cc3ccn(CCC[C@H](COC(F)F)Nc4cn[nH]c(=O)c4C(F)(F)F)c(=O)c3c(F)c2F)ncc1OC(F)F [Example 397, (R)-6-(4-amino-5-(difluoromethoxy)pyrimidin-2-yl)-2-(5-(difluoromethoxy)-4-((6-oxo-5-(trifluoromethyl)-1,6-dihydropyridazin-4-yl)amino)pentyl)-7,8-difluoroisoquinolin-1(2H)-one]
6.37 | O=c1[nH]ncc(N[C@H](CCCn2cnc3cc(C4=CCCCO4)c(F)cc3c2=O)COC(F)F)c1C(F)(F)F [Example 398, (R)-3-(5-(difluoromethoxy)-4-((6-oxo-5-(trifluoromethyl)-1,6-dihydropyridazin-4-yl)amino)pentyl)-7-(3,4-dihydro-2H-pyran-6-yl)-6-fluoroquinazolin-4(3H)-one]
8.53 | O=c1[nH]ncc(N[C@H](CCCn2ccc3cc(-c4ccc(C(F)(F)F)cn4)c(F)cc3c2=O)COC(F)F)c1C(F)(F)F [Example 399, (R)-2-(5-(difluoromethoxy)-4-((6-oxo-5-(trifluoromethyl)-1,6-dihydropyridazin-4-yl)amino)pentyl)-7-fluoro-6-(5-(trifluoromethyl)pyridin-2-yl)isoquinolin-1(2H)-one]
7.25 | Nc1cc(-c2cc3ccn(CCC[C@H](COC(F)F)Nc4cn[nH]c(=O)c4C(F)(F)F)c(=O)c3cc2F)cnc1C(F)(F)F [Example 400, (R)-6-(5-amino-6-(trifluoromethyl)pyridin-3-yl)-2-(5-(difluoromethoxy)-4-((6-oxo-5-(trifluoromethyl)-1,6-dihydropyridazin-4-yl)amino)pentyl)-7-fluoroisoquinolin-1(2H)-one]
8.79 | O=c1[nH]ncc(N[C@H](CCCn2ccc3cc(-c4ccc(C(F)F)cn4)c(F)cc3c2=O)COC(F)F)c1C(F)(F)F [Example 401, (R)-2-(5-(difluoromethoxy)-4-((6-oxo-5-(trifluoromethyl)-1,6-dihydropyridazin-4-yl)amino)pentyl)-6-(5-(difluoromethyl)pyridin-2-yl)-7-fluoroisoquinolin-1(2H)-one]
8.50 | O=c1[nH]ncc(N[C@H](CCCn2cnc3cc(-c4ccc(C(F)F)cn4)c(F)cc3c2=O)COC(F)F)c1C(F)(F)F [Example 402, (R)-3-(5-(difluoromethoxy)-4-((6-oxo-5-(trifluoromethyl)-1,6-dihydropyridazin-4-yl)amino)pentyl)-7-(5-(difluoromethyl)pyridin-2-yl)-6-fluoroquinazolin-4(3H)-one]
8.44 | O=c1[nH]ncc(N[C@H](CCCn2cnc3cc(-c4ccc(C(F)(F)F)cn4)c(F)cc3c2=O)COC(F)F)c1C(F)(F)F [Example 403, (R)-3-(5-(difluoromethoxy)-4-((6-oxo-5-(trifluoromethyl)-1,6-dihydropyridazin-4-yl)amino)pentyl)-6-fluoro-7-(5-(trifluoromethyl)pyridin-2-yl)quinazolin-4(3H)-one]
8.80 | O=c1[nH]ncc(N[C@H](CCCn2cnc3nc(-c4ccc(C(F)(F)F)cn4)ccc3c2=O)COC(F)F)c1C(F)(F)F [Example 404, (R)-3-(5-(difluoromethoxy)-4-((6-oxo-5-(trifluoromethyl)-1,6-dihydropyridazin-4-yl)amino)pentyl)-7-(5-(trifluoromethyl)pyridin-2-yl)pyrido[2,3-d]pyrimidin-4(3H)-one]
8.01 | Nc1nc(-c2ccc3c(=O)n(CCC[C@H](COC(F)F)Nc4cn[nH]c(=O)c4C(F)(F)F)ccc3n2)ccc1C(F)(F)F [Example 405, (R)-2-(6-amino-5-(trifluoromethyl)pyridin-2-yl)-6-(5-(difluoromethoxy)-4-((6-oxo-5-(trifluoromethyl)-1,6-dihydropyridazin-4-yl)amino)pentyl)-1,6-naphthyridin-5(6H)-one]
8.76 | O=c1[nH]ncc(N[C@H](CCCn2ccc3cc(-c4ccc(C(F)F)cn4)c(F)c(F)c3c2=O)COC(F)F)c1C(F)(F)F [Example 406, (R)-2-(5-(difluoromethoxy)-4-((6-oxo-5-(trifluoromethyl)-1,6-dihydropyridazin-4-yl)amino)pentyl)-6-(5-(difluoromethyl)pyridin-2-yl)-7,8-difluoroisoquinolin-1(2H)-one]
8.70 | O=c1[nH]ncc(N[C@H](CCCn2ccc3cc(-c4ccc(C(F)(F)F)cn4)c(F)c(F)c3c2=O)COC(F)F)c1C(F)(F)F [Example 407, (R)-2-(5-(difluoromethoxy)-4-((6-oxo-5-(trifluoromethyl)-1,6-dihydropyridazin-4-yl)amino)pentyl)-7,8-difluoro-6-(5-(trifluoromethyl)pyridin-2-yl)isoquinolin-1(2H)-one]
8.39 | O=c1[nH]ncc(N[C@H](CCCn2ccc3nc(-c4ccc(C(F)F)cn4)ccc3c2=O)COC(F)F)c1C(F)(F)F [Example 408, (R)-6-(5-(difluoromethoxy)-4-((6-oxo-5-(trifluoromethyl)-1,6-dihydropyridazin-4-yl)amino)pentyl)-2-(5-(difluoromethyl)pyridin-2-yl)-1,6-naphthyridin-5(6H)-one]
8.35 | Nc1nc(-c2cc3ccn(CCC[C@H](COC(F)F)Nc4cn[nH]c(=O)c4C(F)(F)F)c(=O)c3cc2F)ccc1F [Example 409, (R)-6-(6-amino-5-fluoropyridin-2-yl)-2-(5-(difluoromethoxy)-4-((6-oxo-5-(trifluoromethyl)-1,6-dihydropyridazin-4-yl)amino)pentyl)-7-fluoroisoquinolin-1(2H)-one]
9.00 | Nc1nc(-c2cc3ccn(CCC[C@H](COC(F)F)Nc4cn[nH]c(=O)c4C(F)(F)F)c(=O)c3cc2F)ccc1Cl [Example 410, (R)-6-(6-amino-5-chloropyridin-2-yl)-2-(5-(difluoromethoxy)-4-((6-oxo-5-(trifluoromethyl)-1,6-dihydropyridazin-4-yl)amino)pentyl)-7-fluoroisoquinolin-1(2H)-one]
8.28 | N#Cc1ccc(-c2cc3ccn(CCC[C@H](COC(F)F)Nc4cn[nH]c(=O)c4C(F)(F)F)c(=O)c3cc2F)nc1N [Example 411, (R)-2-amino-6-(2-(5-(difluoromethoxy)-4-((6-oxo-5-(trifluoromethyl)-1,6-dihydropyridazin-4-yl)amino)pentyl)-7-fluoro-1-oxo-1,2-dihydroisoquinolin-6-yl)nicotinonitrile]
7.76 | Cc1ccc(-c2cc3ccn(CCC[C@H](COC(F)F)Nc4cn[nH]c(=O)c4C(F)(F)F)c(=O)c3cc2F)nc1N [Example 412, (R)-6-(6-amino-5-methylpyridin-2-yl)-2-(5-(difluoromethoxy)-4-((6-oxo-5-(trifluoromethyl)-1,6-dihydropyridazin-4-yl)amino)pentyl)-7-fluoroisoquinolin-1(2H)-one]
8.34 | O=c1[nH]ncc(N[C@H](CCCn2cnc3cc(-c4cnc(C5CC5)cn4)c(F)cc3c2=O)COC(F)F)c1C(F)(F)F [Example 413, (R)-7-(5-cyclopropylpyrazin-2-yl)-3-(5-(difluoromethoxy)-4-((6-oxo-5-(trifluoromethyl)-1,6-dihydropyridazin-4-yl)amino)pentyl)-6-fluoroquinazolin-4(3H)-one]
7.96 | Nc1nc(-c2cc3ncn(CCC[C@H](COC(F)F)Nc4cn[nH]c(=O)c4C(F)(F)F)c(=O)c3cc2F)nc(C2CC2)c1Cl [Example 414, (R)-7-(4-amino-5-chloro-6-cyclopropylpyrimidin-2-yl)-3-(5-(difluoromethoxy)-4-((6-oxo-5-(trifluoromethyl)-1,6-dihydropyridazin-4-yl)amino)pentyl)-6-fluoroquinazolin-4(3H)-one]
